Measured values reported in patent US20130217085A1, “METHODS FOR IMPROVING FERMENTATION YIELD OF POLYUNSATURATED FATTY ACIDS” (NANJING UNIVERSITY OF TECHNOLOGY, priority 2010, published 2013).

Test system: Schizochytrium limacinum HX-308
Experiment: Shake-flask fermentation of Schizochytrium limacinum HX-308 with exogenous compatible solute added to the fermentation medium (fatty acid composition, DHA yield, biomass)
Assay type: cell-based
Details: for increase of DHA yield: versus no addition
Description: The detection method of the following Examples is the same as that in the application titled “Schizochytrium limacinum and method of production of DHA oil using the same” (Application No. 200910033869.5) The strain is Schizochytrium limacinum HX-308 with deposit number CCTCC No. M209059. Seed medium: D-glucose 40 g/L, yeast extract 2 g/L, sodium glutamate 10 g/L, MgCl2 3 g/L, CaCl2·2H2O 1 g/L, KH2PO4 4 g/L, KCl 2 g/L, NaCl 15 g/L, MgSO4·7H2O 5 g/L, FeCl3 0.1 g/L. (See “A Schizochytrium limacinum and method of production of DHA oil using the same” (Application No. 200910033869.5)). Fermentation medium: D-glucose 40 g/L, yeast extract 2 g/L, sodium glutamate 10 g/L, MgCl2 3 g/L, (NH4)2SO4 6 g/L, KH2PO4 4 g/L, KCl 2 g/L, NaCl 15 g/L, MgSO4·7H2O 5 g/L, FeCl3 0.1 g/L. (See “A Schizochytrium limacinum and method of production of DHA oil using the same” (Application No. 200910033869.5)). Cultural method: strain was inoculated into seed medium with inoculation amount of 5% (v/v), cultured in a 500 mL shake flask for 24 h to log phase under 170 r at 25° C., and inoculated into the fermentation medium with addition of a certain amount of glycine betaine (such as 10 mmol/L, 40 mmol/L, 70 mmol/L, 100 mmol/L) in inoculation amount of 9% (v/v) for culturing; fermentation ceased when glucose reached an amount of 0 g/L. The results are shown in Table 1. The strain is Schizochytrium limacinum HX-308 with deposit number CCTCC No. M209059. Seed medium: D-glucose 40 g/L, yeast extract 2 g/L, sodium glutamate 10 g/L, MgCl2 3 g/L, CaCl2·2H2O 1 g/L, KH2PO4 4 g/L, KCl 2 g/L, NaCl 15 g/L, MgSO4·7H2O 5 g/L, FeCl3 0.1 g/L. Fermentation medium: D-glucose 40 g/L, yeast extract 2 g/L, sodium glutamate 10 g/L, MgCl2 3 g/L, (NH4)2SO4 6 g/L, KH2PO4 4 g/L, KCl 2 g/L, NaCl 15 g/L, MgSO4·7H2O 5 g/L, FeCl3 0.1 g/L. Cultural method: the strain was inoculated into seed medium with inoculation amount of 5% (v/v), cultured in a 500 mL shake flask for 24 h to log phase under 170 r at 25° C., and inoculated into the fermentation medium with addition of a certain amount of trehalose (such as 10 mmol/L, 40 mmol/L, 80 mmol/L) in inoculation amount of 9% (v/v); fermentation ceased when glucose reached an amount of 0 g/L. The results are shown in Table 2.

[1] = exogenous glycine betaine 10 mM
[2] = exogenous glycine betaine 40 mM
[3] = exogenous glycine betaine 70 mM
[4] = exogenous glycine betaine 100 mM
[5] = exogenous glycine betaine 200 mM

SMILES: C[N+](C)(C)CC(=O)[O-] [glycine betaine]
- mass percentage of squalene (after treatment with exogenous glycine betaine, concentration not given, increased from 0.8%): 1.7%
- DHA yield (after treatment with exogenous glycine betaine, concentration not given, increased from 3.9 g/L): 5.0 g/L
- Total fatty acid yield (after treatment with exogenous glycine betaine, concentration not given, increased from 8.8 g/L): 10 g/L
- mass percentage of DPA in total fatty acids (after treatment with exogenous glycine betaine, concentration not given, increased from 11.9%): 16.2%
- mass percentage of DHA in total fatty acids (after treatment with exogenous glycine betaine, concentration not given, increased from 44.1%): 49.8%
- ratio of DHA in the total biomass (after treatment with exogenous glycine betaine, concentration not given, increased from 57): 72 mg/g
- mass percentage of saturated fatty acid C14: 0 in total fatty acid (after treatment with exogenous glycine betaine, concentration not given, reduced from 10.0%): 5.1%
- mass percentage of saturated fatty acid C16: 0 in total fatty acid (after treatment with exogenous glycine betaine, concentration not given, reduced from 24.4%): 20%
- increase of DHA yield (after treatment with exogenous glycine betaine): 28%
- ARA (% total fatty acids) [1]: 0.5 % total fatty acids
- Biomass [1]: 69 g/L
- C14:0 (% total fatty acids) [1]: 7.1 % total fatty acids
- C16:0 (% total fatty acids) [1]: 21.5 % total fatty acids
- DHA (% total fatty acids) [1]: 47.8 % total fatty acids
- DHA (mg/g biomass) [1]: 60.5 mg/g biomass
- DHA yield [1]: 4.2 g/L
- DPA (% total fatty acids) [1]: 14.5 % total fatty acids
- EPA (% total fatty acids) [1]: 1.2 % total fatty acids
- Others (% total fatty acids) [1]: 6.2 % total fatty acids
- Squalene (% total fatty acids) [1]: 1.2 % total fatty acids
- Total fatty acid yield [1]: 8.8 g/L
- ARA (% total fatty acids) [2]: 0.6 % total fatty acids
- Biomass [2]: 69 g/L
- C14:0 (% total fatty acids) [2]: 5.1 % total fatty acids
- C16:0 (% total fatty acids) [2]: 19.9 % total fatty acids
- DHA (% total fatty acids) [2]: 49.8 % total fatty acids
- DHA (mg/g biomass) [2]: 72.2 mg/g biomass
- DHA yield [2]: 5 g/L
- DPA (% total fatty acids) [2]: 16.2 % total fatty acids
- EPA (% total fatty acids) [2]: 1.6 % total fatty acids
- Others (% total fatty acids) [2]: 5.1 % total fatty acids
- Squalene (% total fatty acids) [2]: 1.7 % total fatty acids
- Total fatty acid yield [2]: 10 g/L
- ARA (% total fatty acids) [3]: 0.8 % total fatty acids
- Biomass [3]: 70 g/L
- C14:0 (% total fatty acids) [3]: 5.1 % total fatty acids
- C16:0 (% total fatty acids) [3]: 19.5 % total fatty acids
- DHA (% total fatty acids) [3]: 49.0 % total fatty acids
- DHA (mg/g biomass) [3]: 67.1 mg/g biomass
- DHA yield [3]: 4.7 g/L
- DPA (% total fatty acids) [3]: 16.0 % total fatty acids
- EPA (% total fatty acids) [3]: 2.0 % total fatty acids
- Others (% total fatty acids) [3]: 5.6 % total fatty acids
- Squalene (% total fatty acids) [3]: 2.0 % total fatty acids
- Total fatty acid yield [3]: 9.6 g/L
- ARA (% total fatty acids) [4]: 0.9 % total fatty acids
- Biomass [4]: 70 g/L
- C14:0 (% total fatty acids) [4]: 5.2 % total fatty acids
- C16:0 (% total fatty acids) [4]: 19.0 % total fatty acids
- DHA (% total fatty acids) [4]: 48.1 % total fatty acids
- DHA (mg/g biomass) [4]: 61.14 mg/g biomass
- DHA yield [4]: 4.3 g/L
- DPA (% total fatty acids) [4]: 15.8 % total fatty acids
- EPA (% total fatty acids) [4]: 2.6 % total fatty acids
- Others (% total fatty acids) [4]: 6.1 % total fatty acids
- Squalene (% total fatty acids) [4]: 2.3 % total fatty acids
- Total fatty acid yield [4]: 8.9 g/L
- Biomass [5]: 85 g/L
- C14:0 (% total fatty acids) [5]: 2.3 % total fatty acids
- C16:0 (% total fatty acids) [5]: 10.9 % total fatty acids
- DHA (% total fatty acids) [5]: 34.9 % total fatty acids
- DHA (mg/g biomass) [5]: 27 mg/g biomass
- DHA yield [5]: 2.3 g/L
- DPA (% total fatty acids) [5]: 10.5 % total fatty acids
- EPA (% total fatty acids) [5]: 8.6 % total fatty acids
- Others (% total fatty acids) [5]: 30.9 % total fatty acids
- Squalene (% total fatty acids) [5]: 1.9 % total fatty acids
- Total fatty acid yield [5]: 6.6 g/L

SMILES: OC[C@H]1O[C@H](O[C@H]2O[C@H](CO)[C@@H](O)[C@H](O)[C@H]2O)[C@H](O)[C@@H](O)[C@@H]1O [trehalose]
- increase of DHA yield (appropriate amount of trehalose): 92%
- DHA yield (appropriate amount of trehalose, increased from 3.9 g/L): 7.5 g/L
- yield of total fatty acids (appropriate amount of trehalose, increased from 8.8 g/L): 16.7 g/L
- ratio of DHA in total biomass (appropriate amount of trehalose, increased from 57): 99 mg/g
- Biomass (appropriate amount of trehalose, increased from 60 g/L): 76 g/L
- ARA (% total fatty acids) (exogenous trehalose 10 mM): 0.6 % total fatty acids
- Biomass (exogenous trehalose 10 mM): 70 g/L
- C14:0 (% total fatty acids) (exogenous trehalose 10 mM): 9.5 % total fatty acids
- C16:0 (% total fatty acids) (exogenous trehalose 10 mM): 22.3 % total fatty acids
- DHA (% total fatty acids) (exogenous trehalose 10 mM): 44.8 % total fatty acids
- DHA (mg/g biomass) (exogenous trehalose 10 mM): 57.1 mg/g biomass
- DHA yield (exogenous trehalose 10 mM): 4 g/L
- DPA (% total fatty acids) (exogenous trehalose 10 mM): 12.3 % total fatty acids
- EPA (% total fatty acids) (exogenous trehalose 10 mM): 1.6 % total fatty acids
- Others (% total fatty acids) (exogenous trehalose 10 mM): 8.1 % total fatty acids
- Squalene (% total fatty acids) (exogenous trehalose 10 mM): 0.8 % total fatty acids
- Total fatty acid yield (exogenous trehalose 10 mM): 8.9 g/L
- ARA (% total fatty acids) (exogenous trehalose 40 mM): 1.9 % total fatty acids
- Biomass (exogenous trehalose 40 mM): 74 g/L
- C14:0 (% total fatty acids) (exogenous trehalose 40 mM): 9.6 % total fatty acids
- C16:0 (% total fatty acids) (exogenous trehalose 40 mM): 21.3 % total fatty acids
- DHA (% total fatty acids) (exogenous trehalose 40 mM): 47.4 % total fatty acids
- DHA (mg/g biomass) (exogenous trehalose 40 mM): 56.6 mg/g biomass
- DHA yield (exogenous trehalose 40 mM): 4.2 g/L
- DPA (% total fatty acids) (exogenous trehalose 40 mM): 12.6 % total fatty acids
- EPA (% total fatty acids) (exogenous trehalose 40 mM): 1.8 % total fatty acids
- Others (% total fatty acids) (exogenous trehalose 40 mM): 4.5 % total fatty acids
- Squalene (% total fatty acids) (exogenous trehalose 40 mM): 0.9 % total fatty acids
- Total fatty acid yield (exogenous trehalose 40 mM): 8.9 g/L
- ARA (% total fatty acids) (exogenous trehalose 80 mM): 1.2 % total fatty acids
- Biomass (exogenous trehalose 80 mM): 76 g/L
- C14:0 (% total fatty acids) (exogenous trehalose 80 mM): 10.7 % total fatty acids
- C16:0 (% total fatty acids) (exogenous trehalose 80 mM): 23.2 % total fatty acids
- DHA (% total fatty acids) (exogenous trehalose 80 mM): 45 % total fatty acids
- DHA (mg/g biomass) (exogenous trehalose 80 mM): 99.3 mg/g biomass
- DHA yield (exogenous trehalose 80 mM): 7.5 g/L
- DPA (% total fatty acids) (exogenous trehalose 80 mM): 12.2 % total fatty acids
- EPA (% total fatty acids) (exogenous trehalose 80 mM): 1.3 % total fatty acids
- Others (% total fatty acids) (exogenous trehalose 80 mM): 5.5 % total fatty acids
- Squalene (% total fatty acids) (exogenous trehalose 80 mM): 0.9 % total fatty acids
- Total fatty acid yield (exogenous trehalose 80 mM): 16.7 g/L
- ARA (% total fatty acids) (exogenous trehalose 160 mM): 1.0 % total fatty acids
- Biomass (exogenous trehalose 160 mM): 78 g/L
- C14:0 (% total fatty acids) (exogenous trehalose 160 mM): 11.0 % total fatty acids
- C16:0 (% total fatty acids) (exogenous trehalose 160 mM): 22.5 % total fatty acids
- DHA (% total fatty acids) (exogenous trehalose 160 mM): 43.2 % total fatty acids
- DHA (mg/g biomass) (exogenous trehalose 160 mM): 89.7 mg/g biomass
- DHA yield (exogenous trehalose 160 mM): 7 g/L
- DPA (% total fatty acids) (exogenous trehalose 160 mM): 12.1 % total fatty acids
- EPA (% total fatty acids) (exogenous trehalose 160 mM): 1.4 % total fatty acids
- Others (% total fatty acids) (exogenous trehalose 160 mM): 8.3 % total fatty acids
- Squalene (% total fatty acids) (exogenous trehalose 160 mM): 0.5 % total fatty acids
- Total fatty acid yield (exogenous trehalose 160 mM): 16.2 g/L
- Biomass (exogenous trehalose 200 mM): 81 g/L
- C14:0 (% total fatty acids) (exogenous trehalose 200 mM): 11.7 % total fatty acids
- C16:0 (% total fatty acids) (exogenous trehalose 200 mM): 21.5 % total fatty acids
- DHA (% total fatty acids) (exogenous trehalose 200 mM): 41.7 % total fatty acids
- DHA (mg/g biomass) (exogenous trehalose 200 mM): 78 mg/g biomass
- DHA yield (exogenous trehalose 200 mM): 6.3 g/L
- DPA (% total fatty acids) (exogenous trehalose 200 mM): 11.5 % total fatty acids
- EPA (% total fatty acids) (exogenous trehalose 200 mM): 1.4 % total fatty acids
- Others (% total fatty acids) (exogenous trehalose 200 mM): 12.2 % total fatty acids
- Total fatty acid yield (exogenous trehalose 200 mM): 15.1 g/L
- ARA (% total fatty acids) (exogenous trehalose 280 mM): 1.0 % total fatty acids
- Biomass (exogenous trehalose 280 mM): 76 g/L
- C14:0 (% total fatty acids) (exogenous trehalose 280 mM): 11.1 % total fatty acids
- C16:0 (% total fatty acids) (exogenous trehalose 280 mM): 22.7 % total fatty acids
- DHA (% total fatty acids) (exogenous trehalose 280 mM): 39.1 % total fatty acids
- DHA (mg/g biomass) (exogenous trehalose 280 mM): 29 mg/g biomass
- DHA yield (exogenous trehalose 280 mM): 2.2 g/L
- DPA (% total fatty acids) (exogenous trehalose 280 mM): 10.8 % total fatty acids
- EPA (% total fatty acids) (exogenous trehalose 280 mM): 7.7 % total fatty acids
- Others (% total fatty acids) (exogenous trehalose 280 mM): 7.6 % total fatty acids
- Total fatty acid yield (exogenous trehalose 280 mM): 5.6 g/L
